Assay results taken from patent US20250376483A1, “PRODRUGS OF PAN-KRAS INHIBITORS” (Mirati Therapeutics, Inc., priority 2022, published 2025).

How the values were obtained:
[1] = Plasma Stability Assay (human plasma); assay type: in vitro ADME; conditions: both sexes; pooled human plasma, heparin, final conc. 2 μM, 37° C., 0-120 min; read-out: Human Plasma Stability t1/2
Outline: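 Compound at 2 μM final in pooled heparinised plasma (3 male, 3 female), incubated at 37° C with sampling at 0, 10, 30, 60 and 120 min. Acetonitrile stop, LC-MS/MS; % remaining from analyte/internal-standard peak area ratio relative to T0.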

[2] = Whole Blood Stability Assay (mouse whole blood); assay type: in vitro ADME; conditions: CD-1 mouse blood, EDTA-K2, final conc. 2 μM, 37° C., 0-120 min; for half-life at 2 μM: male, fresh whole blood, read-out: Mouse Whole Blood Stability t1/2
Outline: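 Compound at 2 μM final was incubated at 37 °C in fresh EDTA-K2 blood from male CD-1 mice. Samples at 0, 10, 30, 60 and 120 min were protein-precipitated with acetonitrile and analysed by LC-MS/MS. % remaining was derived from analyte/internal-standard peak area ratios.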

| Compound | half-life at 2 μM [1] [min] | half-life at 2 μM [2] [min] | Mouse Whole Blood Stability t1/2 [2] [min] |
| --- | --- | --- | --- |
| CCc1c(F)ccc2cc(OC(=O)N3CCCC[C@H]3C)cc(N3CCc4c(nc(OC[C@@]56CCCN5C[C@H](F)C6)nc4N4CCC[C@]5(C4)NC(=O)NC5=O)C3)c12 [Example 57, 4-(4-((R)-2,4-dioxo-1,3,7-triazaspiro[4.5]decan-7-yl)-2-(((2R,7aS)-2-fluorotetrahydro-1H-pyrrolizin-7a(5H)-yl)methoxy)-5,8-dihydropyrido[3,4-d]pyrimidin-7(6H)-yl)-5-ethyl-6-fluoronaphthalen-2-yl (R)-2-methylpiperidine-1-carboxylate] | > 289 | > 289 |  |
| CCc1c(F)ccc2cc(OC(=O)N3CCC[C@@H](C)C3)cc(N3CCc4c(nc(OC[C@@]56CCCN5C[C@H](F)C6)nc4N4CCC[C@]5(C4)NC(=O)NC5=O)C3)c12 [Example 58, 4-(4-((R)-2,4-dioxo-1,3,7-triazaspiro[4.5]decan-7-yl)-2-(((2R,7aS)-2-fluorotetrahydro-1H-pyrrolizin-7a(5H)-yl)methoxy)-5,8-dihydropyrido[3,4-d]pyrimidin-7(6H)-yl)-5-ethyl-6-fluoronaphthalen-2-yl (R)-3-methylpiperidine-1-carboxylate] | > 289 | > 289 |  |
| CCc1c(F)ccc2cc(OC(=O)N3CCC[C@H](C)C3)cc(N3CCc4c(nc(OC[C@@]56CCCN5C[C@H](F)C6)nc4N4CCC[C@]5(C4)NC(=O)NC5=O)C3)c12 [Example 59, 4-(4-((R)-2,4-dioxo-1,3,7-triazaspiro[4.5]decan-7-yl)-2-(((2R,7aS)-2-fluorotetrahydro-1H-pyrrolizin-7a(5H)-yl)methoxy)-5,8-dihydropyrido[3,4-d]pyrimidin-7(6H)-yl)-5-ethyl-6-fluoronaphthalen-2-yl (S)-3-methylpiperidine-1-carboxylate] | > 289 | > 289 |  |
| CCc1c(F)ccc2cc(OC(=O)N3CCOCC3)cc(N3CCc4c(nc(OC[C@@]56CCCN5C[C@H](F)C6)nc4N4CCC[C@]5(C4)NC(=O)NC5=O)C3)c12 [Example 60, 4-(4-((R)-2,4-dioxo-1,3,7-triazaspiro[4.5]decan-7-yl)-2-(((2R,7aS)-2-fluorotetrahydro-1H-pyrrolizin-7a(5H)-yl)methoxy)-5,8-dihydropyrido[3,4-d]pyrimidin-7(6H)-yl)-5-ethyl-6-fluoronaphthalen-2-yl morpholine-4-carboxylate] | > 289 | 79 |  |
| CCc1c(F)ccc2cc(OC(=O)C3(C)CCC3)cc(N3CCc4c(nc(OC[C@@]56CCCN5C[C@H](F)C6)nc4N4CCC[C@]5(C4)NC(=O)NC5=O)C3)c12 [Example 61, 4-(4-((R)-2,4-dioxo-1,3,7-triazaspiro[4.5]decan-7-yl)-2-(((2R,7aS)-2-fluorotetrahydro-1H-pyrrolizin-7a(5H)-yl)methoxy)-5,8-dihydropyrido[3,4-d]pyrimidin-7(6H)-yl)-5-ethyl-6-fluoronaphthalen-2-yl 1-methylcyclobutane-1-carboxylate] | > 289 | 2 |  |
| CCc1c(F)ccc2cc(OC(=O)C3(C)COC3)cc(N3CCc4c(nc(OC[C@@]56CCCN5C[C@H](F)C6)nc4N4CCC[C@]5(C4)NC(=O)NC5=O)C3)c12 [Example 62, 4-(4-((R)-2,4-dioxo-1,3,7-triazaspiro[4.5]decan-7-yl)-2-(((2R,7aS)-2-fluorotetrahydro-1H-pyrrolizin-7a(5H)-yl)methoxy)-5,8-dihydropyrido[3,4-d]pyrimidin-7(6H)-yl)-5-ethyl-6-fluoronaphthalen-2-yl 3-methyloxetane-3-carboxylate] | 38 |  | 1 |
